For test [1], the target named is T1, ER-α (Homo sapiens, UniProt P03372).
T1 construct: MCF7 cells were trypsinized and washed twice; endogenous in cells; host or cells: MCF7 breast cancer cells
T1 sequence (P03372 1-595): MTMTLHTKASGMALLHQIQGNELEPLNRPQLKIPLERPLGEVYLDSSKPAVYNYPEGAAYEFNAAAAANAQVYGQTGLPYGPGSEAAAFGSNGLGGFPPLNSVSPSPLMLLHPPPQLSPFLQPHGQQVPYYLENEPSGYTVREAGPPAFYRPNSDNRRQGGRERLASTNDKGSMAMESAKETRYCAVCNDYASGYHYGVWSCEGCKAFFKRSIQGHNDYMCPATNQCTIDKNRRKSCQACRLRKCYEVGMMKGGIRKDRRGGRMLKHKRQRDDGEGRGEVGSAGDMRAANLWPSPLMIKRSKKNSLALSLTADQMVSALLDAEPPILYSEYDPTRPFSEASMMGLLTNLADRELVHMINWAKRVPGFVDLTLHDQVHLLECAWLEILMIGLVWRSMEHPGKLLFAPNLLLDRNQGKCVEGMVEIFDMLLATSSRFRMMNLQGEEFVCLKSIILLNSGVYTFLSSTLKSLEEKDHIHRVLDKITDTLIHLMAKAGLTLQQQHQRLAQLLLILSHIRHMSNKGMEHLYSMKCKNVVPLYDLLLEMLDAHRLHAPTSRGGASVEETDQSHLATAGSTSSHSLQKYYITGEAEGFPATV
The test is described as follows: ER-α In Cell Western Assay. It counts as cell-based. To be noted: MCF7 cells, 4 hours post compound addition, SP1 anti-ER antibody; read-out: ICW (SP1) max response. The procedure:
MCF7 cells were trypsinized and washed twice in Phenol Red Free RPMI containing 5% Charcoal Dextran Stripped serum with 20 mM HEPES and NEAA, then adjusted to a concentration of 200,000 cells per mL with the same medium. Next, 16 μL of the cell suspension (3200 cells) was added to each well of a poly-D-lysine coated 384 well plate, and the cells were incubated at 37° C. over 4 days to allow the cells to adhere and grow. […] At 4 hours post compound addition, the cells were fixed by adding 16 μL of 30% formalin to the 32 μL of cells and compound (10% formalin final concentration) for 20 minutes. Cells were then washed twice with PBS Tween 0.1% and then permeabilized in PBS 0.1% Triton (50 μl/well) for additional 15 minutes. The PBS 0.1% triton was decanted, and the cells were washed: LI-COR blocking buffer (50 μL/well) was added, the plate was spun at 3000 rpm, and then the blocking buffer was decanted. Additional LI-COR blocking buffer (50 μL/well) was added, and the cells were incubated overnight at 4° C. The blocking buffer was decanted, and the cells were incubated overnight at 4° C. with SP1 (Thermo Scientific) anti-ER rabbit monoclonal antibody diluted 1:1000 in LI-COR blocking buffer/0.1% Tween-20. Wells which were treated with blocking buffer with Tween but no antibody were used as a background control. Wells were washed twice with PBS Tween 0.1% to remove free SP1 antibodies, and the cells were incubated at room temp for 60-90 minutes in LI-COR goat anti-rabbit IRDye™ 800CW (1:1000) and DRAQ5 DNA dye (1:10000 of 5 mM stock solution) diluted in LI-COR blocking buffer containing 0.1% Tween-20 and 0.01% SDS. Cells were then washed with 0.1% Tween-20/PBS three times. Plates were scanned on a LI-COR Odyssey infrared imaging system. Integrated intensities in the 800 nm channel and 700 nm channel were measured to determine levels of ER-α and DNA respectively. Percent ER levels were determined as follows: (Integrated intensity […] sample/integrated intensity 700 nm sample)/(Integrated intensity 800 nm untreated cells/integrated intensity 700 nm untreated cells)×100=% ER levels.

For test [2], the system named is MCF-7 cells. The test is described as follows: Breast Cancer Cell Viability Assay (CellTiter-Glo). It is filed as cell-based. As to conditions: 5 days of compound exposure; for IC50: Homo sapiens, MCF7, 120 h, read-out: MCF7 viab IC50. The method, then:
The following day a 10 point, serial 1:5 dilution of each compound was added to the cells in 16 μL at a final concentration ranging from 10-0.00000 μM. After 5 days of compound exposure, 16 μL of CellTiter-GLo (Promega, Madison Wis.) was added to the cells, and the relative luminescence units (RLUs) of each well were determined. CellTiter-Glo added to 32 μL of medium without cells was used to obtain a background value.

This note sets out measurements from patent US10053451B2, “Heterocyclic estrogen receptor modulators and uses thereof” (priority 2015, dated 2018).

On to `CC1=C(c2cccc(O)c2)C(c2cnc(OC[C@H](C)N3CC[C@@H](C)C3)cn2)Oc2ccc(O)cc21` (stereo partly drawn) [Example 3, 3-(3-Hydroxyphenyl)-4-methyl-2-(5-((S)-2-((R)-3-methylpyrrolidin-1-yl)propoxy)pyrazin-2-yl)-2H-chromen-6-ol], for which the Emax in test [1] worked out at 83.3%. In test [2], the “MCF7 viab max response” value worked out at 61.1 and the IC50 turned out to be 0.66 nM.
`CC1=C(c2cccc(O)c2)C(c2ccc(OC[C@H](C)N3CC[C@@H](C)C3)cc2)Oc2c1ccc1[nH]ncc21` (stereo partly drawn) [Example 15, 3-(4-Methyl-2-(4-((S)-2-((R)-3-methylpyrrolidin-1-yl)propoxy)phenyl)-2,7-dihydropyrano[2,3-e]indazol-3-yl)phenol]: the Emax in test [1] is 79.5%. For the same compound, in test [2], the “MCF7 viab max response” value is 65.6 and the IC50 came to 0.46 nM.
